Tested on: 485176-168-R4-J1-PDC spheroids with HUVEC/MSC, viability
Assay: Anticancer human tumor 485176-168-R4-J1-PDC patient-derived pancreatic adenocarcinoma cell line growth inhibition [GQUAD]
Settings: for IC50: curve of first compound; for viability, T/C: stronger effect = lower value
Excerpt: DNA G-quadruplex Stabilizer Agents in Combinations in Complex Spheroids
A high-throughput screen of multi-cell type tumor spheroids was designed to identify active combinations of DNA G-quadruplex stabilizer agents and targeted small molecules. Complex spheroids include a stromal component modeled by human endothelial cells (HUVEC) and fibroblasts modeled by human mesenchymal stem cells (MSCs). The concentration ranges selected for each drug and investigational agent were based upon clinically achievable concentrations if the clinical Cmax of the agent was known.
Compounds. The drugs and investigational agents: pidnarulex (CX-5461; NSC782164), APTO-253 (NSC789042), BRACO-19 (NSC847499), peposertib (NSC802822), ceralasertib (NSC780249), elimusertib (NSC800525), camonsertib (NSC841442), AZD-1390 (NSC803789), olaparib (NSC753686), talazoparib (NSC767125), ART-558 (NSC835418), sotorasib (NSC818433), MRTX-1133 (NSC836407), SN-38 (NSC673596), topotecan (NSC609699), etoposide (NSC141540), doxorubicin (NSC123127), gemcitabine (NSC613327), 5-fluorouracil (NSC19893), paclitaxel (NSC125973), vemurafenib (NSC761431), panobinostat (NSC761190), R-306465 (JNJ-16241199; NSC773264), adavosertib (NSC754352), TP-3654 (NSC805149), carboplatin (NSC241240), KSQ-4279 (NSC840948), and staurosporine (NSC755774) were obtained from the National Cancer Institute (NCI) Developmental Therapeutics Program Chemical Repository (34). The FDA-approved anticancer drug set is available from the NCI Developmental Therapeutics Program. […] The stock solutions were prepared in dimethyl sulfoxide (DMSO, Sigma-Aldrich, St. Louis, MO, cat. D2650) at 800-fold the tested concentration and stored at -70 degrees C prior to their use. All drugs and investigational agents were tested over a range starting from a high concentration at or near the clinical Cmax and decreasing in half-log increments. If the clinical Cmax for an agent had not been determined, the highest concentration tested was 10 microM.
2.3 Cell Culture. All cells were maintained in an incubator at 37 degrees C and 5% CO2 with 95% humidity. The PDC lines were cultured according to standard operating procedures established by the NCI PDMR. All PDCs were thawed and cultured in Matrigel-coated flasks prepared with a working solution of 1X Ham's F-12 nutrient mix, without supplementation (Invitrogen, cat. 11765054), 100 U/mL penicillin-streptomycin (Invitrogen, cat. 15140122), and 2.5% Matrigel (Corning Inc., cat. 354248) for the first three passages. The 857933-349-R-J2-PDC line was cultured in 6C/Colon 1B media, which includes advanced DMEM/F-12 (Thermo Fisher Scientific, cat. 12634028), 10 mM HEPES (Thermo Fisher Scientific, cat. 15630080), 1X GlutaMAX supplement (Thermo Fisher Scientific, cat. 35050061), 0.1 mg/mL primocin (InvivoGen, cat. ant-pm-2), 10% defined fetal bovine serum, heat inactivated (HyClone Laboratories Inc., cat. SH30070.03HI), 50% L-WRN conditioned media (ATCC, cat. CRL-3276), 1.25 mM N-Acetyl-L-cysteine (Sigma-Aldrich, cat. A9165), 10 mM nicotinamide (Sigma-Aldrich, cat. N0636), 1X B-27 supplement (Thermo Fisher Scientific, cat. 17504044), 1X N-2 supplement (Thermo Fisher Scientific, cat. 17502048), 10 microM Y-27632 dihydrochloride (Tocris Bioscience, cat. 1254), and 50 ng/mL human EGF recombinant protein (Thermo Fisher Scientific, cat. PHG0311). The 485176-168-R4-J1-PDC line was cultured in Panc media, which includes all 6C/Colon 1B media components plus 100 ng/mL human FGF-10 (Thermo Fisher Scientific, cat. 100-26), 500 nM SB-431542 (Selleckchem, cat. S1067), and gastrin (Tocris, cat. 3006).
[…]

[1] = second compound 0.0316 µM, first compound 0.0316 µM
[2] = second compound 0.0316 µM, first compound 0.316 µM
[3] = second compound 0.1 µM, first compound 0.0316 µM
[4] = second compound 0.1 µM, first compound 0.316 µM
[5] = second compound 0.316 µM, first compound 0.0316 µM
[6] = second compound 0.316 µM, first compound 0.316 µM
[7] = second compound 1 µM, first compound 0.0316 µM
[8] = second compound 1 µM, first compound 0.316 µM
[9] = second compound 3.16 µM, first compound 0.0316 µM
[10] = second compound 3.16 µM, first compound 0.316 µM
[11] = second compound 10 µM, first compound 0.0316 µM
[12] = second compound 10 µM, first compound 0.316 µM
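Note: spheroids exposed to compounds for seven days before readout.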
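Throughout, for viability, T/C: percent viability relative to DMSO vehicle control wells as 100%.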

Cn1ncnc1[C@H]1c2n[nH]c(=O)c3cc(F)cc(c23)N[C@@H]1c1ccc(F)cc1 + Cc1cnc(CNC(=O)c2c(=O)c3ccc(N4CCCN(C)CC4)nc3n3c2sc2ccccc23)cn1 was tested, and the IC50 (second compound 0.0316 µM) was greater than 316 nM, the IC50 (second compound 0.1 µM) was greater than 316 nM and the IC50 (second compound 0.316 µM) was greater than 316 nM. It also gave an IC50 (second compound 1 µM) greater than 316 nM, an IC50 (second compound 3.16 µM) of 7.33 nM and an IC50 (second compound 10 µM) of less than 0.999 nM. The viability, T/C (second compound 0.0316 µM, first compound 0.000999 µM) was 90.2%, the viability, T/C (second compound 0.0316 µM, first compound 0.00316 µM) was 79% and the viability, T/C (second compound 0.0316 µM, first compound 0.00999 µM) was 91.5%. For the same compound, the viability, T/C [1] was 90.2%, the viability, T/C (second compound 0.0316 µM, first compound 0.0999 µM) was 91.4% and the viability, T/C [2] was 80.8%. The viability, T/C (second compound 0.1 µM, first compound 0.000999 µM) was 74.4%, the viability, T/C (second compound 0.1 µM, first compound 0.00316 µM) was 91.7% and the viability, T/C (second compound 0.1 µM, first compound 0.00999 µM) was 75.8%. The viability, T/C [3] was 77.3%, the viability, T/C (second compound 0.1 µM, first compound 0.0999 µM) was 78.9% and the viability, T/C [4] was 69.9%. For the same compound, the viability, T/C (second compound 0.316 µM, first compound 0.000999 µM) was 63.6%, the viability, T/C (second compound 0.316 µM, first compound 0.00316 µM) was 70.5% and the viability, T/C (second compound 0.316 µM, first compound 0.00999 µM) was 64.8%. The viability, T/C [5] was 62.7%, the viability, T/C (second compound 0.316 µM, first compound 0.0999 µM) was 56.2% and the viability, T/C [6] was 68.7%. It also gave a viability, T/C (second compound 1 µM, first compound 0.000999 µM) of 49.3%, a viability, T/C (second compound 1 µM, first compound 0.00316 µM) of 61.2% and a viability, T/C (second compound 1 µM, first compound 0.00999 µM) of 74%. The viability, T/C [7] was 51.8%, the viability, T/C (second compound 1 µM, first compound 0.0999 µM) was 52.8% and the viability, T/C [8] was 48.5%. The viability, T/C (second compound 3.16 µM, first compound 0.000999 µM) was 45.4%, the viability, T/C (second compound 3.16 µM, first compound 0.00316 µM) was 63.9% and the viability, T/C (second compound 3.16 µM, first compound 0.00999 µM) was 48.3%. For the same compound, the viability, T/C [9] was 45.3%, the viability, T/C (second compound 3.16 µM, first compound 0.0999 µM) was 45.4% and the viability, T/C [10] was 40%. It also gave a viability, T/C (second compound 10 µM, first compound 0.000999 µM) of 42.8%, a viability, T/C (second compound 10 µM, first compound 0.00316 µM) of 48.4% and a viability, T/C (second compound 10 µM, first compound 0.00999 µM) of 39.2%. The viability, T/C [11] was 34.8%, the viability, T/C (second compound 10 µM, first compound 0.0999 µM) was 38.1% and the viability, T/C [12] was 33.5%.
For O=c1[nH]cc(F)c(=O)[nH]1 + Cc1cnc(CNC(=O)c2c(=O)c3ccc(N4CCCN(C)CC4)nc3n3c2sc2ccccc23)cn1, the IC50 (second compound 0.0316 µM) was 847 nM, the IC50 (second compound 0.1 µM) was 272 nM and the IC50 (second compound 0.316 µM) was 248 nM. For the same compound, the IC50 (second compound 1 µM) was 202 nM, the IC50 (second compound 3.16 µM) was less than 31.6 nM and the IC50 (second compound 10 µM) was less than 31.6 nM. It also gave a viability, T/C [1] of 84.7%, a viability, T/C (second compound 0.0316 µM, first compound 0.1 µM) of 77.4% and a viability, T/C [2] of 66.1%. The viability, T/C (second compound 0.0316 µM, first compound 1 µM) was 45.9%, the viability, T/C (second compound 0.0316 µM, first compound 3.16 µM) was 43.5% and the viability, T/C (second compound 0.0316 µM, first compound 10 µM) was 43.6%. The viability, T/C [3] was 63.3%, the viability, T/C (second compound 0.1 µM, first compound 0.1 µM) was 73.5% and the viability, T/C [4] was 47.2%. It also gave a viability, T/C (second compound 0.1 µM, first compound 1 µM) of 47.1%, a viability, T/C (second compound 0.1 µM, first compound 3.16 µM) of 46.4% and a viability, T/C (second compound 0.1 µM, first compound 10 µM) of 43.6%. For the same compound, the viability, T/C [5] was 53.8%, the viability, T/C (second compound 0.316 µM, first compound 0.1 µM) was 66.1% and the viability, T/C [6] was 47.4%. The viability, T/C (second compound 0.316 µM, first compound 1 µM) was 45.3%, the viability, T/C (second compound 0.316 µM, first compound 3.16 µM) was 35.1% and the viability, T/C (second compound 0.316 µM, first compound 10 µM) was 45.7%. It also gave a viability, T/C [7] of 50.5%, a viability, T/C (second compound 1 µM, first compound 0.1 µM) of 54.7% and a viability, T/C [8] of 48.3%. For the same compound, the viability, T/C (second compound 1 µM, first compound 1 µM) was 38.2%, the viability, T/C (second compound 1 µM, first compound 3.16 µM) was 36.4% and the viability, T/C (second compound 1 µM, first compound 10 µM) was 41%. For the same compound, the viability, T/C [9] was 40.6%, the viability, T/C (second compound 3.16 µM, first compound 0.1 µM) was 44.1% and the viability, T/C [10] was 37.2%. The viability, T/C (second compound 3.16 µM, first compound 1 µM) was 32.8%, the viability, T/C (second compound 3.16 µM, first compound 3.16 µM) was 34.5% and the viability, T/C (second compound 3.16 µM, first compound 10 µM) was 31.3%. It also gave a viability, T/C [11] of 41.5%, a viability, T/C (second compound 10 µM, first compound 0.1 µM) of 45% and a viability, T/C [12] of 33.5%. The viability, T/C (second compound 10 µM, first compound 1 µM) was 30.3%, the viability, T/C (second compound 10 µM, first compound 3.16 µM) was 34.4% and the viability, T/C (second compound 10 µM, first compound 10 µM) was 34.3%.

Source: PubChem BioAssay AID2060509 (Molecular Pharmacology Branch, DTP, NCI, 2025)
